Assay results taken from ChEMBL document CHEMBL1201862, “PubChem BioAssay data set” (2004).
Activity calls are given as the source filed them.

Experiments:
[1] = molecular target: T1, Aspartyl aminopeptidase (Plasmodium falciparum 3D7, UniProt Q8I2J3); assay: Counterscreen for inhibitors of M1 and M17 aminopeptidases: QFRET-based biochemical high throughput dose response assay for inhibitors of the Plasmodium falciparum M18 Aspartyl Aminopeptidase (PFM18AAP). [Related PubChem assays: 1619 (Screening assay (M17LAP inhibitors).), 1445 (Screening assay (M1AAP inhibitors).)]
T1 sequence (Q8I2J3 whole entry): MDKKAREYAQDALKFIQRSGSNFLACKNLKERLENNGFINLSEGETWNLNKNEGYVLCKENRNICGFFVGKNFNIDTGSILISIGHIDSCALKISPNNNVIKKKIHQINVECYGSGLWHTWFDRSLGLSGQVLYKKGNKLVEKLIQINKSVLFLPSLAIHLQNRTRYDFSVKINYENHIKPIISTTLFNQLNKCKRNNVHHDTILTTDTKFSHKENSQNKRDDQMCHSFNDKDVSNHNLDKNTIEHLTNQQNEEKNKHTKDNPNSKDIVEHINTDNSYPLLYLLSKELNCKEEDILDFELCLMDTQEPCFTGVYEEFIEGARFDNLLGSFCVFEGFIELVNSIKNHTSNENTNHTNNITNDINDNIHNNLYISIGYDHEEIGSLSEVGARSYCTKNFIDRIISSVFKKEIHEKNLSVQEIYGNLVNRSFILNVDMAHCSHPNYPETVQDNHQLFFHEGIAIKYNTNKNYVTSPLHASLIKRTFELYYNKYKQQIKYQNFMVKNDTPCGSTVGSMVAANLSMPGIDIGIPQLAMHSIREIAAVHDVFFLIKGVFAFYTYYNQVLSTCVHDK

[2] = molecular target: T2, Leucine aminopeptidase (Plasmodium falciparum 3D7, UniProt Q8IL11); assay: P. falciparum M17LAP inhibitors, primary screen, biochemical, fluorogenic H-Leu-NHMec substrate, 1536-well (AID 1619); type: functional
T2 sequence (Q8IL11 whole entry): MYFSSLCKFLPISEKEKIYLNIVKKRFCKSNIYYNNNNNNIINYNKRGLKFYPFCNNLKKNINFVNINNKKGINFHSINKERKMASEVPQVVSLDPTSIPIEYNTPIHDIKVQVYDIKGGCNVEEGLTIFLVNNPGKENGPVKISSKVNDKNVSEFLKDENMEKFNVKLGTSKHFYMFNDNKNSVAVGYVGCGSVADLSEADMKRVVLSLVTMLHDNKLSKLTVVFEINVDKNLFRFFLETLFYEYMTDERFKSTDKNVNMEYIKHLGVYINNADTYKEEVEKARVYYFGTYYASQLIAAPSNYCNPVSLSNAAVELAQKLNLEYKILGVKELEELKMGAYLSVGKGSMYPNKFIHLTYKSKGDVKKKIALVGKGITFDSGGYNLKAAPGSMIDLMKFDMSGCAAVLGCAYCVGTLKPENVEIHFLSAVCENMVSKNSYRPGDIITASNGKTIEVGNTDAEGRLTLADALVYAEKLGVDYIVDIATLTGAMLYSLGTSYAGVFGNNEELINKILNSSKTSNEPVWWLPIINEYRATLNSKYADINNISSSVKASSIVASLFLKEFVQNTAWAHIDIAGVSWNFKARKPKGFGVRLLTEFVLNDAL

[3] = molecular target: Procathepsin L (Homo sapiens, UniProt P07711); assay: CTSL1 protease inhibition – biochemical, QFRET, 1536-well, counter-screen for M1/M17 aminopeptidase inhibitor project, dose response (AID 2214)
Chain of Procathepsin L (P07711 whole entry): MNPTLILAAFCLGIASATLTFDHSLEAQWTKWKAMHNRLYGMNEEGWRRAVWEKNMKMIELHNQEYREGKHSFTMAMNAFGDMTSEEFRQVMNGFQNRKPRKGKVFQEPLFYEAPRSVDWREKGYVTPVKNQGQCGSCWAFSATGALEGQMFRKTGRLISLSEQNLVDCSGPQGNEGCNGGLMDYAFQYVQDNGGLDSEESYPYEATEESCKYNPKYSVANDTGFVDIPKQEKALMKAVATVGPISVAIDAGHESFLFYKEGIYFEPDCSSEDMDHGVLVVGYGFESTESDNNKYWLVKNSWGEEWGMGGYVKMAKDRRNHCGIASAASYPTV

[4] = molecular target: T3, Sentrin-specific protease 8 (Homo sapiens, UniProt Q96LD8); type: functional;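 further: luminescence read-out of SENP8 inhibition, dose-response confirmation following an ultra-high-throughput screen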
T3 sequence (Q96LD8 whole entry): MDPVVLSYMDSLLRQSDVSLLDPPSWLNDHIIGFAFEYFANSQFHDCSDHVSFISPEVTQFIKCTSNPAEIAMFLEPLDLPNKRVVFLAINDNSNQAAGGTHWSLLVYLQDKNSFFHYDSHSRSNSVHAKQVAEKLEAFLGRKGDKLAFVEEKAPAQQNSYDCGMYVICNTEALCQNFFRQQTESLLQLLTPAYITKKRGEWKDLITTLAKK

[5] = molecular target: T4, Caspase-3 (Homo sapiens, UniProt P42574); type: functional;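 further: Dose-response selectivity test against caspase-3 for candidate inhibitors of sentrin-specific proteases (SENPs)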
T4 sequence (P42574 whole entry): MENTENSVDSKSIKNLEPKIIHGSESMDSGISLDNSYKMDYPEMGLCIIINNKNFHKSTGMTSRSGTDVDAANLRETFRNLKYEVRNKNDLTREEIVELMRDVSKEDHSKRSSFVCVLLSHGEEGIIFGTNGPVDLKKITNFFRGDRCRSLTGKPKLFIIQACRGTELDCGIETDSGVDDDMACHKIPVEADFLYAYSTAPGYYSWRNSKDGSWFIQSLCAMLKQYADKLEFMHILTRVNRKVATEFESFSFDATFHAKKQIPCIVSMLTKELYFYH

[6] = molecular target: Heat shock protein HSP 90-alpha (Homo sapiens, UniProt P07900); assay: Luminescence-based dose response biochemical high throughput screening assay for inhibitors of the Heat Shock Protein 90 (HSP90). [Related pubchem assays: 1831 (Summary AID.), 1846 (Confirmation screen.), 1789 (Primary screen.)]
[7] = molecular target: T5, Sentrin-specific protease 6 (Homo sapiens, UniProt Q9GZR1); type: functional;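 further: Luminescence-based dose-response confirmatory assay of SENP6 inhibition, following up an ultra-high-throughput screen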
T5 sequence (Q9GZR1 whole entry): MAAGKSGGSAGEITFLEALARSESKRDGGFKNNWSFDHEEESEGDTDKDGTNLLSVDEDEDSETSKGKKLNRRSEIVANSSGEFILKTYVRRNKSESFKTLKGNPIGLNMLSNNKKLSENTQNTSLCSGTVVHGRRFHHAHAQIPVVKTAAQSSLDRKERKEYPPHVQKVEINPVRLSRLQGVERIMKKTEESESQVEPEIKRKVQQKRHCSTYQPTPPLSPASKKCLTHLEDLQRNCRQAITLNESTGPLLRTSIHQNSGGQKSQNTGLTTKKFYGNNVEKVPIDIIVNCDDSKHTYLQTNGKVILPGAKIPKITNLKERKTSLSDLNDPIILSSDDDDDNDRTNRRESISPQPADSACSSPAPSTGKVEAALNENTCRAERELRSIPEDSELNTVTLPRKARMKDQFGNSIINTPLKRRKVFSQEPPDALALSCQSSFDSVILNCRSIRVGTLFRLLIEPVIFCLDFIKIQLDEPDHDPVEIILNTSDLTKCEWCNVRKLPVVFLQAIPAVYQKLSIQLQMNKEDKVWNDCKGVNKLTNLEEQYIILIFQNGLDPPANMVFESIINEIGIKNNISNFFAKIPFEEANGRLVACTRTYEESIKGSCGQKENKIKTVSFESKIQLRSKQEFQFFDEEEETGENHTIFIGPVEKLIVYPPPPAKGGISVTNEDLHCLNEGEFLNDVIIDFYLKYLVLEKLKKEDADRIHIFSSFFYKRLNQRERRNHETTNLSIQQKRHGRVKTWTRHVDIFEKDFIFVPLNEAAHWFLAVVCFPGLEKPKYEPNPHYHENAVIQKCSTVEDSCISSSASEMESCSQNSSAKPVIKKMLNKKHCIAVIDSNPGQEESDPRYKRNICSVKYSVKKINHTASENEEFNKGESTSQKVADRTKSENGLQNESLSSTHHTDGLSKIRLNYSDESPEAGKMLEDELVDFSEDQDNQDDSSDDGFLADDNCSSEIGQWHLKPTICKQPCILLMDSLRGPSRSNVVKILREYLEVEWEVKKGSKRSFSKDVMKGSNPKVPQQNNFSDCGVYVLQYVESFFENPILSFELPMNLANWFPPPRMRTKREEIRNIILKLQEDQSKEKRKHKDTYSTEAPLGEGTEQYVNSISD

[8] = molecular target: T6, Sentrin-specific protease 7 (Homo sapiens, UniProt Q9BQF6); type: functional;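 further: Luminescence-based dose-response confirmation of ultra-high-throughput screening hits, measuring inhibition of SENP7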
T6 sequence (Q9BQF6 whole entry): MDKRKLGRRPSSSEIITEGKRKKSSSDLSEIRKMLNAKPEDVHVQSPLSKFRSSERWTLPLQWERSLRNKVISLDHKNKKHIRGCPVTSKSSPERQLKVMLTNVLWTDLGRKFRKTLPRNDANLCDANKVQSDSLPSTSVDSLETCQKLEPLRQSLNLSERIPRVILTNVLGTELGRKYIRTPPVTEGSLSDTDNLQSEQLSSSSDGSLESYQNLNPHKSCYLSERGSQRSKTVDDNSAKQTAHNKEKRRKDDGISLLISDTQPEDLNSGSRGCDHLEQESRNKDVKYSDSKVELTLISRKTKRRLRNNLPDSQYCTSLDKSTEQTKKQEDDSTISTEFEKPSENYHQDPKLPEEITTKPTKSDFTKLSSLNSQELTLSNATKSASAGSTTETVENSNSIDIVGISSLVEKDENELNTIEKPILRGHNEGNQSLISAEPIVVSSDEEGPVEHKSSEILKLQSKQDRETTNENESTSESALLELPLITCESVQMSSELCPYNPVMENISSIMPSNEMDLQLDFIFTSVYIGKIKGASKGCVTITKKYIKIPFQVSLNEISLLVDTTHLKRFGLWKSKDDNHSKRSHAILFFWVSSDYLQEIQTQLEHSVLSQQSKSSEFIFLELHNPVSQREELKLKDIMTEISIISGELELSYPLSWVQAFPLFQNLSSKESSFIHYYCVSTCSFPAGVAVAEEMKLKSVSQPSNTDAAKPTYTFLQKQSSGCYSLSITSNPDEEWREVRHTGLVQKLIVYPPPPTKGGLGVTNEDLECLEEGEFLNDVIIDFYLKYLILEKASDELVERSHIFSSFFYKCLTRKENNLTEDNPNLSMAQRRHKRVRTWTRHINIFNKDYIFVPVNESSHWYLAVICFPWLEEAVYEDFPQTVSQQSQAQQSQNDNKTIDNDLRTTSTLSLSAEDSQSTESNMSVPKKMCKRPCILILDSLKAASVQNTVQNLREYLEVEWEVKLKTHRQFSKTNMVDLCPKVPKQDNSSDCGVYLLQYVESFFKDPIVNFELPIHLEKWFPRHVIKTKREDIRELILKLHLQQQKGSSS

[9] = molecular target: Prothrombin (Homo sapiens, UniProt P00734); assay: Thrombin 1536 HTS Dose Response Confirmation. [Related pubchem assays: 1046 (Thrombin 1536 HTS; hits were confirmed in this assay)]; type: functional
[10] = molecular target: Luciferin 4-monooxygenase (Photinus pyralis, UniProt P08659); assay: Counter Screen for Luciferase-based Assay Positives. [Related pubchem assays: 620, 618, 411 ]
Chain of Luciferin 4-monooxygenase (P08659 whole entry): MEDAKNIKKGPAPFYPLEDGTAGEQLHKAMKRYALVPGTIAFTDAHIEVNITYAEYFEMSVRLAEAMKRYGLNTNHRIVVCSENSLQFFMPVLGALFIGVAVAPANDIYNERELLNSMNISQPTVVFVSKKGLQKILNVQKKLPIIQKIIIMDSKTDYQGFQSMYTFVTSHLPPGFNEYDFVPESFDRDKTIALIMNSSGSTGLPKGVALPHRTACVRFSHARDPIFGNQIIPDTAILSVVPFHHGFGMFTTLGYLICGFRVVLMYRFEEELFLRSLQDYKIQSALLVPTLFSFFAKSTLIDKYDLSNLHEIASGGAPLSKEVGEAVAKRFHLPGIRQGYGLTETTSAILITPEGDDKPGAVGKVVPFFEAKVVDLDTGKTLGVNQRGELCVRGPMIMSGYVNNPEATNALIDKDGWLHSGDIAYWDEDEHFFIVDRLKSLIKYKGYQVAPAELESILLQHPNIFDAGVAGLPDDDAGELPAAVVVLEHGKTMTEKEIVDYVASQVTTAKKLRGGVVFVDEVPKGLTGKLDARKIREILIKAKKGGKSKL

[11] = tested on: HT-1080; assay: HT1080 cell viability loss – fluorescence readout (AID 620); type: functional, cell-based; details: Homo sapiens
[12] = molecular target: Glyceraldehyde-3-phosphate dehydrogenase (Homo sapiens, UniProt P04406)
Chain of Glyceraldehyde-3-phosphate dehydrogenase (P04406 whole entry): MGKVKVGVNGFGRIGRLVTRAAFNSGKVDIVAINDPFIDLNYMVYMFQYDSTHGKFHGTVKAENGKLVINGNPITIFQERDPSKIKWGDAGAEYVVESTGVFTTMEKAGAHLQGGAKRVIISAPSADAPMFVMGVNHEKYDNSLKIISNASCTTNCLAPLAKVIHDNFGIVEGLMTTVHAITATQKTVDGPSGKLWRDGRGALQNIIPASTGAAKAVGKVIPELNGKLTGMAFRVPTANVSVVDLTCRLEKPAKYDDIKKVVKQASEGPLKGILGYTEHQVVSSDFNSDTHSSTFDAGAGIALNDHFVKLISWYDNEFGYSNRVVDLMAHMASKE

[13] = molecular target: T7, Heat shock factor protein 1 (Mus musculus, UniProt P38532); assay: decrease of HSF1-responsive luciferase luminescence – cell-based, NIH3T3, dose retest, confirmation (AID 2382); type: functional;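 further: NIH3T3 fibroblasts with HSF1-driven luciferase reporter stressed by proteasome inhibitor MG132; luminescence from HSF1-driven luciferase expression after 8 hours of MG132 stress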
T7 sequence (P38532 whole entry): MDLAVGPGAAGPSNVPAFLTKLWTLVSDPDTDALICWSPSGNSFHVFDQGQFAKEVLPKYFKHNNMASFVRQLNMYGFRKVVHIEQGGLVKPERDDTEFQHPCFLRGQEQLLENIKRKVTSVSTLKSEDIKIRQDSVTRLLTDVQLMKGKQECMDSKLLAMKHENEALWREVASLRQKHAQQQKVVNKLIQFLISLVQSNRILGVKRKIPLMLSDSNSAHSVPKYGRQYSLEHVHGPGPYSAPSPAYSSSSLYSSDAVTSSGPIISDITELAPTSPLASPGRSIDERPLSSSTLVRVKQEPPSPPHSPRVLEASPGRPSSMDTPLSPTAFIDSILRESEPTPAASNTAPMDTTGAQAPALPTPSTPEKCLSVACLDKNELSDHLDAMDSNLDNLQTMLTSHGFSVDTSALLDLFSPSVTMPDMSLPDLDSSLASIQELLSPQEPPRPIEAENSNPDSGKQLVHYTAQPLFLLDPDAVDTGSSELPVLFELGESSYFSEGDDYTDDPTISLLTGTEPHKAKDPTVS

[14] = HEK-293T cell viability reduction – luminescence, B-cell screen hits, cytotoxicity control for BCR NF-kB inhibitor project, dose response (AID 489021); type: functional, cell-based;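 further: HEK-293T cells carrying an NF-kB luciferase reporter; cells exposed to compound for about 14 hours before viability readout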
[15] = blockers of bursicon-stimulated LGR2 cAMP reporter – cell-based, HEK293, CRE-luciferase reporter, cherry pick, set 2, dose response (AID 743343); type: functional;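 further: transfected cells were stimulated with diluted bursicon conditioned medium after compound addition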
[16] = viability loss in HEK293 cells – cell-based, plate reader, cherry-picked samples, cytotoxicity control, dose response (AID 743446); type: functional
[17] = microbe, parasite or virus in culture; type: functional; details: Mycobacterium tuberculosis
[18] = blockade of melanocortin 4 receptor signaling – cell-based, plate reader, cherry pick, counter-screen for LGR2 antagonist project, dose response (AID 743444); type: functional;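 further: transfected HEK 293 cells stimulated with alpha-MSH peptide; potency of inhibitors of the alpha-MSH evoked signal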
[19] = toxicity toward HepG2 liver cells – cell-based, plate reader, cherry-pick, antagonist series, cytotoxicity control, dose response (AID 743416); type: functional

SMILES: Cc1ccc(Nc2nnc(SCC(=O)NC(Cc3c[nH]c4ccccc34)C(=O)O)s2)cc1 (stereo not drawn)
- IC50 [1]: > 73.5 µM (not active)
- IC50 [2]: 3.25 µM (active)
- IC50 [3]: > 59.6 µM (not active)

SMILES: CN1C(=O)S/C(=C/c2ccc(OCc3cccc(C(=O)O)c3)cc2)C1=O
- IC50 [4]: 8.88 µM (active)
- IC50 [5]: 88.1 µM (active)
- IC50 [6]: > 20 µM (not active)
- IC50 [7]: 4.42 µM (active)
- IC50 [8]: 6.05 µM (active)

SMILES: CCC(=O)n1nc(-c2cccnc2)nc1NCc1ccccc1
- IC50 [9]: 0.0029 µM (active)

SMILES: Cc1cc(C)n(-c2nc3ccccc3nc2N2CCC(C)CC2)n1
- EC50 [10]: 1.01 µM (active)
- EC50 [11]: > 50 µM (not active)

SMILES: O=C(CCC1CCCN(C(=O)C2(c3ccccc3)CC2)C1)N1CCN(c2ccccn2)CC1 (stereo not drawn)
- IC50 [9]: > 50 µM (not active)

SMILES: N#Cc1c(NC(=O)C2CC(Cl)=CCC2C(=O)O)sc2c1CCCC2 (stereo not drawn)
- IC50 [1]: > 73.5 µM (not active)
- IC50 [2]: < 1 µM (active)
- IC50 [3]: > 59.6 µM (not active)

SMILES: CCCCN1C(=O)NC(=O)C2(Cc3c(nc4ccccn4c3=O)N3CCc4ccccc4C32)C1=O (stereo not drawn)
- IC50 [9]: 5.42 µM (active)

SMILES: O=C(O)CCSc1nc2ccccc2s1
- IC50 [12]: > 100 µM (not active)
- EC50 [13]: 6.83 µM (active)
- EC50 [10]: > 100 µM (not active)
- IC50 [14]: > 80 µM (inactive)
- EC50 [11]: > 50 µM (not active)

SMILES: CC(C)(C)c1ccc(-c2nc(-c3ccncc3)no2)cc1
- EC50 [10]: 0.57 µM (active)
- AC50 [15]: 12.9 µM (active)
- AC50 [16]: > 52 µM (inactive)
- CC50 [17]: 34.2 µM (active)
- EC50 [11]: > 50 µM (not active)
- AC50 [18]: 20.8 µM (active)
- AC50 [19]: 30.1 µM (active)
